Experimental findings from US11053230B2, “3-hydroxy-imidazolidin-4-one compounds as inhibitors of indoleamine 2,3-dioxygenase” (Netherlands Translational Research Center B.V., priority 2017, dated 2021) are described below.

The target in this experiment is T1, IDO1 (Homo sapiens, UniProt P14902).
T1 construct: Recombinant full-length IDO1 (Seegers, N., et al.) and all other assay components were diluted in IDO1 reaction buffer; made in house
Description: Biochemical IDO1 assay (NFK GreenScreen). To be noted: for pIC50: NFK GreenScreen, 25 nM IDO1, 100 μM L-tryptophan, read-out: IC50, inhibitory potency on IDO1; for relative activity of the separated isomers: stated in the synthesis examples, assay not named. On the procedure:
Inhibition of IDO1 activity can be measured by determining the enzymatic conversion of L-tryptophan into N-formylkynurenine (NFK) in a reaction mixture containing IDO1 and test compound. The formation of NFK can be detected directly by, for instance, high-performance liquid chromatography (HPLC) methods, or by intrinsic fluorescence.
Compounds were serially diluted in dimethylsulfoxide (DMSO) and finally in IDO1 reaction buffer, consisting of 50 mM NaH2PO4, pH7.0, supplemented with 0.05% Tween-20 (cat. No. P7949; Sigma Aldrich) and 1% glycerol. Recombinant full-length IDO1 (Seegers, N., et al.) and all other assay components were diluted in IDO1 reaction buffer. […] Subsequently, 10 μl of 0.4 mM of the substrate L-tryptophan was added, i.e., the final concentration of L-tryptophan was 100 μM. The DMSO concentration in the assay was 0.3%. […] Incubation was continued for 60 min at room temperature. Then, 10 μl of NFK Green™ (NTRC, Oss, The Netherlands) was added, the plate was sealed, and the reaction was developed for 3 hours at 37° C. To determine the production of N-formyl kynurenine (NFK), the seal was removed and fluorescence was read on an EnVision multimode reader (Perkin Elmer, Waltham, Mass., USA). IC50 were calculated using XLfit™ software (ID Business Solutions, Ltd., Surrey, U.K.).

pIC50: −log10 of the molar value. Values joined by “and” are separate entries in the source; they are usually repeats but may differ in a detail not shown here. Equal values may be shown once. Where only a bound is given, the exact number is not on record here.

T1 sequence (P14902 whole entry): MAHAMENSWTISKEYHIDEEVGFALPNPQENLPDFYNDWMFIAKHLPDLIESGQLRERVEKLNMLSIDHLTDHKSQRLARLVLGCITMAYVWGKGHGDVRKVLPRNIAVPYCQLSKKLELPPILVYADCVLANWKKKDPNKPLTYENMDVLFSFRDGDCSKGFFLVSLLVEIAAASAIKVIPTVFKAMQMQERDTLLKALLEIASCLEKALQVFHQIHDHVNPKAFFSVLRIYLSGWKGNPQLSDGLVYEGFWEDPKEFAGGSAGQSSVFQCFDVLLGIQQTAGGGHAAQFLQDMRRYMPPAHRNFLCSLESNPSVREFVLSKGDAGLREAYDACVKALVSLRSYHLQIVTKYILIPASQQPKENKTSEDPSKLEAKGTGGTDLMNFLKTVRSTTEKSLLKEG

For the compound `O=C1CN(Cc2c(F)cccc2F)C(c2cc(Br)cs2)N1O` (single isomer, unassigned) [Example 45a, 2-(4-Bromo-2-thienyl)-1-[(2,6-difluorophenyl)methyl]-3-hydroxy-imidazolidin-4-one], the pIC50 was ≥ 5.30 and 5.30 to 6.00; the “relative activity of the separated isomers” value (from here on “relative activity”) was “less active isomer”.
Consider `O=C1CN(Cc2c(F)cccc2F)C(c2cc(Br)cs2)N1O` (single isomer, unassigned) [Example 45b, 2-(4-Bromo-2-thienyl)-1-[(2,6-difluorophenyl)methyl]-3-hydroxy-imidazolidin-4-one], for which the pIC50 was at least 6.00 and the “relative activity” value was “most active isomer”.
For `O=C1CN(C(=O)c2c(F)cccc2F)C(c2csc(Br)c2)N1O` (single isomer, unassigned) [Example 46a, 2-(5-Bromo-3-thienyl)-1-(2,6-difluorobenzoyl)-3-hydroxy-imidazolidin-4-one], the pIC50 is ≥ 5.30 and 5.30 to 6.00; the “relative activity” value is reported as “less active isomer”.
On to `O=C1CN(C(=O)c2c(F)cccc2F)C(c2csc(Br)c2)N1O` (single isomer, unassigned) [Example 46b, 2-(5-Bromo-3-thienyl)-1-(2,6-difluorobenzoyl)-3-hydroxy-imidazolidin-4-one], for which the pIC50 is at least 6.00 and the “relative activity” value is on record as “most active isomer”.
In the case of `O=C1CN(C(=O)c2c(F)cc(C#CC3CC3)cc2F)C(c2cc(Br)cs2)N1O` (single isomer, unassigned) [Example 47a, 2-(4-Bromo-2-thienyl)-1-[4-(2-cyclopropylethynyl)-2,6-difluoro-benzoyl]-3-hydroxy-imidazolidin-4-one], the pIC50 was at least 6.00 and the “relative activity” value is “less active isomer”.
For `O=C1CN(C(=O)c2c(F)cc(C#CC3CC3)cc2F)C(c2cc(Br)cs2)N1O` (single isomer, unassigned) [Example 47b, 2-(4-Bromo-2-thienyl)-1-[4-(2-cyclopropylethynyl)-2,6-difluoro-benzoyl]-3-hydroxy-imidazolidin-4-one], the pIC50 is at least 6.00 and the “relative activity” value was “most active isomer”.
As to `O=C1CN(C(=O)c2c(F)cccc2F)C(c2cc(Br)cs2)N1O` (single isomer, unassigned) [Example 48a, 2-(4-Bromo-2-thienyl)-1-(2,6-difluorobenzoyl)-3-hydroxy-imidazolidin-4-one], the pIC50 is at least 6.00 and the “relative activity” value is reported as “less active isomer”.
Turning to `O=C1CN(C(=O)c2c(F)cccc2F)C(c2cc(Br)cs2)N1O` (single isomer, unassigned) [Example 48b, 2-(4-Bromo-2-thienyl)-1-(2,6-difluorobenzoyl)-3-hydroxy-imidazolidin-4-one], the pIC50 is at least 6.00 and the “relative activity” value is given as “most active isomer”.
Regarding `O=C1CN(C(=O)c2c(F)cccc2F)C(c2ccc(Br)s2)N1O` (single isomer, unassigned) [Example 49a, 2-(5-Bromo-2-thienyl)-1-(2,6-difluorobenzoyl)-3-hydroxy-imidazolidin-4-one], the pIC50 was ≥ 5.30 and 5.30 to 6.00; the “relative activity” value is “less active isomer”.
As for `O=C1CN(C(=O)c2c(F)cccc2F)C(c2ccc(Br)s2)N1O` (single isomer, unassigned) [Example 49b, 2-(5-Bromo-2-thienyl)-1-(2,6-difluorobenzoyl)-3-hydroxy-imidazolidin-4-one], the pIC50 is at least 6.00 and the “relative activity” value is given as “most active isomer”.
As to `O=C1CN(C(=O)c2c(F)cccc2F)C(c2cc(Br)c(F)s2)N1O` (single isomer, unassigned) [Example 110a, 2-(4-Bromo-5-fluoro-2-thienyl)-1-(2,6-difluorobenzoyl)-3-hydroxy-imidazolidin-4-one], the “relative activity” value is on record as “most active isomer”.
With `O=C1CN(C(=O)c2c(F)cccc2F)C(c2cc(Br)c(F)s2)N1O` (single isomer, unassigned) [Example 110b, 2-(4-Bromo-5-fluoro-2-thienyl)-1-(2,6-difluorobenzoyl)-3-hydroxy-imidazolidin-4-one], the “relative activity” value is “less active isomer”.
Regarding `C[C@@H](c1ccccc1)N1CC(=O)N(O)C1c1cc(Br)cs1` (single isomer, unassigned) [Example 118a], the “relative activity” value is recorded as “less active isomer”.
For `C[C@@H](c1ccccc1)N1CC(=O)N(O)C1c1cc(Br)cs1` (single isomer, unassigned) [Example 118b], the pIC50 was at least 6.00 and the “relative activity” value is given as “most active isomer”.
Consider `C[C@@H](c1ccccc1)N1CC(=O)N(O)C1c1cc(I)cs1` (single isomer, unassigned) [Example 119a], for which the “relative activity” value is given as “less active isomer”.
In the case of `C[C@@H](c1ccccc1)N1CC(=O)N(O)C1c1cc(I)cs1` (single isomer, unassigned) [Example 119b], the pIC50 is at least 6.00 and the “relative activity” value is on record as “most active isomer”.
`C[C@@H](c1ccccc1)N1CC(=O)N(O)C1c1ccc(Br)s1` (single isomer, unassigned) [Example 120a]: the “relative activity” value is on record as “less active isomer”.
For the compound `C[C@@H](c1ccccc1)N1CC(=O)N(O)C1c1ccc(Br)s1` (single isomer, unassigned) [Example 120b], the pIC50 was at least 6.00 and the “relative activity” value is recorded as “most active isomer”.
Regarding `C[C@@H](c1ccccc1)N1CC(=O)N(O)C1c1csc(Br)c1` (single isomer, unassigned) [Example 121a], the “relative activity” value is “less active isomer”.
With `C[C@@H](c1ccccc1)N1CC(=O)N(O)C1c1csc(Br)c1` (single isomer, unassigned) [Example 121b], the pIC50 is at least 6.00 and the “relative activity” value was “most active isomer”.
As to `C#Cc1csc(C2N(O)C(=O)CN2C(=O)c2c(F)cccc2F)c1` (centres unmarked) [Example 1, 1-(2,6-Difluorobenzoyl)-2-(4-ethynyl-2-thienyl)-3-hydroxy-imidazolidin-4-one], the pIC50 was at least 6.00.
In the case of `O=C1CN(C(=O)c2ccccc2F)C(c2ccc(Br)s2)N1O` (centres unmarked) [Example 2, 2-(5-Bromo-2-thienyl)-1-(2-fluorobenzoyl)-3-hydroxy-imidazolidin-4-one], the pIC50 was at least 6.00.
The same measure, in the same setting: the result for `O=C1CN(C(=O)c2c(F)cccc2Cl)C(c2ccc(Br)s2)N1O` (centres unmarked) [Example 3, 2-(5-Bromo-2-thienyl)-1-(2-chloro-6-fluoro-benzoyl)-3-hydroxy-imidazolidin-4-one] reads ≥ 5.30 and 5.30 to 6.00; that for `O=C1CN(C(=O)c2c(F)cccc2F)C(c2ccc(Br)s2)N1O` (centres unmarked) [Example 4, 2-(5-Bromo-2-thienyl)-1-(2,6-difluorobenzoyl)-3-hydroxy-imidazolidin-4-one], at least 6.00; that for `O=C1CN(C(=O)c2c(F)cccc2Cl)C(c2cc(Br)cs2)N1O` (centres unmarked) [Example 7, 2-(4-Bromo-2-thienyl)-1-(2-chloro-6-fluoro-benzoyl)-3-hydroxy-imidazolidin-4-one], at least 6.00.
The same measure, in the same setting: the result for `O=C1CN(C(=O)c2c(F)cccc2F)C(c2cc(Br)cs2)N1O` (centres unmarked) [Example 8, 2-(4-Bromo-2-thienyl)-1-(2,6-difluorobenzoyl)-3-hydroxy-imidazolidin-4-one] reads at least 6.00; that for `O=C1CN(C(=O)c2ccccc2F)C(c2cc(Br)cs2)N1O` (centres unmarked) [Example 9, 2-(4-Bromo-2-thienyl)-1-(2-fluorobenzoyl)-3-hydroxy-imidazolidin-4-one], at least 6.00.
On to `O=C1CN(C(=O)c2c(Cl)cccc2Cl)C(c2cc(Br)cs2)N1O` (centres unmarked) [Example 10, 2-(4-Bromo-2-thienyl)-1-(2,6-dichlorobenzoyl)-3-hydroxy-imidazolidin-4-one], for which the pIC50 is ≥ 5.30 and 5.30 to 6.00.
Same read-out and setting: the result for `O=C1CN(C(=O)c2c(F)cccc2C(F)(F)F)C(c2cc(Br)cs2)N1O` (centres unmarked) [Example 11, 2-(4-Bromo-2-thienyl)-1-[2-fluoro-6-(trifluoromethyl)benzoyl]-3-hydroxy-imidazolidin-4-one] reads ≥ 5.30 and 5.30 to 6.00; that for `O=C1CN(C(=O)c2ccccc2)C(c2cc(Br)cs2)N1O` (centres unmarked) [Example 12, 1-Benzoyl-2-(4-bromo-2-thienyl)-3-hydroxy-imidazolidin-4-one], ≥ 5.30 and 5.30 to 6.00.
On the same count and under the same terms, the result for `CSc1ccc(C2N(O)C(=O)CN2C(=O)c2ccccc2F)s1` (centres unmarked) [Example 13, 1-(2-Fluorobenzoyl)-3-hydroxy-2-(5-methylsulfanyl-2-thienyl)imidazolidin-4-one] reads ≥ 5.30 and 5.30 to 6.00; that for `CSc1ccc(C2N(O)C(=O)CN2C(=O)c2c(F)cccc2F)s1` (centres unmarked) [Example 14, 1-(2,6-Difluorobenzoyl)-3-hydroxy-2-(5-methylsulfanyl-2-thienyl)imidazolidin-4-one], ≥ 5.30 and 5.30 to 6.00.
Still for that read-out and setting: with `O=C1CN(C(=O)c2c(F)cccc2F)C(c2ccc([N+](=O)[O-])s2)N1O` (centres unmarked) [Example 16, 1-(2,6-Difluorobenzoyl)-3-hydroxy-2-(5-nitro-2-thienyl)imidazolidin-4-one] the figure was ≥ 5.30 and 5.30 to 6.00.
